Data published in patent publication US6613317B1, “Volatile attractants for diabrotica species” (priority 1988, dated 2003).
Marks after values point to notes of the source that are not given here.

Tests used:
[1] = test system: southern corn rootworm (SCR) adults; assay: Sticky trap attraction in sweet corn plots (Example 1); format: in vivo, Diabrotica undecimpunctata howardi; details: for Mean number of SCR per trap (±standard deviation): n = 4
Experimental: (§1) The attraction of Diabrotica species to single-component and multicomponent lures was evaluated in corn fields. The field experiments on attraction of SCR and WCR adults were conducted in 0.405-ha (1-acre) plots of “Illini Xtra Sweet” corn grown on the University of Illinois South Farms at Urbana, Ill., over a two year period. Most of the tests were conducted in August to correspond with the peak silk-feeding and oviposition periods of corn rootworm adults in central Illinois. In both years, the sweet corn plot was adjacent to a 0.405-ha trap crop of C. maxima cultivar “Blue Hubbard”, to provide high densitites of SCR and WCR adults in the corn plots (Howe, et al., Environ. Entomol., 5:745-751 (1976), Lampman, et al., J. Chem. Ecol., 13:959-975 (1987).
(§2) Attraction of Diabrotica species to volatile compounds was measured by the average number of beetles cought during a 24-h period on 1.0-liter cylindrical paper cartons (15.2 cm high, 27.9 cm circumference) which were evenly coated with clear insect adhesive, TangleTrap™ (Tanglefood Co., Grand Rapids, Mich.) The candidate attractants were applied by capillary micropiettes to cotton dental wicks (13 mm long by 6 mm diameter) that were previously impregnated with mineral oil to prolong volatilization. The chemicals were purchased from Aldrich Chemical Co., (Milwaukee, Wis.) and assayed by gas chromatography as >97% pure. Indole, a solid at ambient temperatures (m.p. 52-54° C.), was dissolved in glass-distilled acetone before dosing the cotton wicks. For dosage-acticity tests, the various components were mixed in equal quantities by weight and diluted to the appropriate dosage with acetone. Treated and untreated (control) wicks were attached to the top of the paper cartons with TangleTrap™ and the inverted traps were placed on 1-m-high posts between the sweet corn rows. Four replicates of each treatment and a control were conducted in a randomized complete block desgin. The sticky traps within a block (ca. 50-m row of corn) were 5-10 m apart (depending on the number of treatments in a particular test) and the blocks were 3 m apart. The traps were baited and placed in the field between 1000 and 1300 hours and beetle counts were taken after 24 h. The significance of treatments was determined by analysis of variance and the individual means were separated by Duncan's multiple range test (Statistical Package for Social Sciences (SPSS) (Nie, et al., SPSS: statistical package for the social sciences, 2nd ed. McGraw-Hill, N.Y. (1975)). Student's t test was used for comparisons of two means (Sokal, et al., Biometry, Freeman, San Francisco (1969). Significance levels were set at P=0.05 at all statistical analyses.
(§3) The initial field test in August of the first year evaluated the response of SCR and WCR adults of a mixture of veratrole (V), indole (I), phenylacetaldehyde (P), trans-anethole (A), and eugenol (E) (=VIPAE mixture), as well as to the individual components. Each component in the VIPAE mixture was present at a dosage of 20 mg per trap and was compared with the individual components at 100 mg per trap. The response of SCR and WCR adults to a range of VIPAE doses, 1-300 mg, was conducted on the following day. Fifty SCR adults were removed from each 100-mg VIPAE trap, and returned to the laboratory for sex determination. Additional analyses in August evaluated the reduction in trap catches produced by the sequential removal of the individual components from the VIPAE lure. After the primary components of the initial lure were determined, a modified multicomponent lure consisting of veratrole, indole, and phenylacetaldehyde (=VIP mixture) was compared with its individual components to determine whether the attraction of SCR adults was the result of interactive or additive factors. The attraction and synergistic response of SCR adults of the VIP mixture was verified by tests conducted in August of the following year. […]

[2] = test system: western corn rootworm (WCR) adults; assay: as above; format: in vivo, Diabrotica virgifera virgifera; details: for Mean number of WCR per trap (±standard deviation): n = 4
Experimental: as §1, §2, §3

[3] = test system: WCR; assay: Limit of response rating of squash blossom volatiles on sticky traps (Example 5); format: in vivo, Diabrotica virgifera virgifera; details: 24 hour; four replicate traps; 0.01 mg to 200 mg
Experimental: (§4) Over 40 individual volatile chemicals have been isolated from Cucurbita maxima blossoms and circa 25 of these have been unequivocally identified (Andersen, J. F., J. Agric. Food Chem., 35:60-62 (1987): Andersen, J. F. and Metcalf, R. L., J. Chem. Ecol., 12:687-699 (1986)). The major odor components were evaluated as potential attractants for adult Diabrotica species using cylindrical sticky traps baited with dental cotton wicks (Metcalf, R. L., and Lampman, R. L., Paper submitted to J. Econ. Entomol., (1988)) containing from 0.01 mg to 200 mg of volatile compound.

[4] = test system: SCR; assay: as above; format: in vivo, Diabrotica undecimpunctata howardi; details: 24 hour; four replicate traps; 0.01 mg to 200 mg
Experimental: as §4

[5] = test system: NCR; assay: as above; format: in vivo, Diabrotica barberi; details: 24 hour; four replicate traps; 0.01 mg to 200 mg
Experimental: as §4

[6] = test system: northern corn rootworm (NCR) adults; assay: Sticky trap attraction in corn, estragole analogues (Example 3); format: in vivo, Diabrotica barberi; details: August 5 (Table 10); 100 mg per trap; n = 4
Experimental: (§5) Test chemicals were applied by capillary micropipettes to cotton dental wicks that were attached to tops of 1.0 liter cylindrical paper cartons covered with TangleTrap™, Grand Rapids, Mich. The trapping techniques used were as previously described in Example 1. Cinnamyl alcohol, 4-methoxycinnamaldehyde, cinnamyl acetate, and 4-(4′methoxyphenyl)-3-butene-2-one which are solids at ambient temperature were prepared as standard w/v solutions in acetone prior to dosing the cotton wicks. All treatments were made at a dosage of 100 mg or 100 μL of attractant per trap. Control traps had untreated wicks. Four replicates of treated and untreated traps were positioned randomly 10 meters apart on top of 1 m high posts along the edges of 25-50 ha. fields of hybrid corn (Zea mays), infested with adult NCR, SCR, and WCR beetles. Several experiments detailed in the Tables were made in a 0.4 ha plot of sweet corn (Illini X-tra Sweet).
(§6) Attraction of Diabrotica species adults of the sticky traps was measured by the mean number of beetles caught after 1 day (ca. 24 hours) exposure. The significance of the treatments was determined by analysis of variance and the individual means were separated by Duncan's multiple range test (Statistical Package for the Social Sciences, Nie, et al., 2nd. ed. McGraw-Hill, New York (1975). The data was logarithmically transformed for statistical analysis. Means and standard deviations are presented for the untransformed data. Significance levels were set at P=0.05 for all statistical analyses.

[7] = test system: western corn rootworm (WCR) adults; assay: as above; format: in vivo, Diabrotica virgifera virgifera; details: 100 mg per trap, n = 4; for Mean number of WCR per sticky trap after 24 hours: August 5 (Table 10)
Experimental: as §5, §6

[8] = test system: southern corn rootworm (SCR) adults; assay: as above; format: in vivo, Diabrotica undecimpunctata howardi; details: 100 mg per trap, n = 4; for Mean number of SCR per sticky trap after 24 hours: August 5 (Table 10)
Experimental: as §5, §6

[9] = test system: D. barberi; assay: Sticky trap attraction in prairie habitat, Trelease Woods (Example 2); format: in vivo, Diabrotica barberi; details: August 14, 1987; 100 mg per trap; n = 4
Experimental: (§7) The candidate lures in all experiments were purchased commercially and exceeded 98% purity. The test chemicals were applied by capillary micropipettes to cotton dental wicks which were attached to the tops of 1.0 liter cylindrical paper cartons covered with TangleTrap™ (Tanglefoot Co., Grand Rapids, Mich.). The sticky trap techniques used were as described in Example 1. Cinnamyl alcohol and para-methoxycinnamaldehyde, which are solids, were dissolved in glass-distilled acetone prior to dosing the cotton wicks. […]. Control traps had untreated cotton wicks. Four replicates of treated and untreated traps were randomly positioned 10 meters apart on top of 1 m high posts along the border of a eight foot wide strip cut through the middle of a 4.05 ha relict prairie at Trelease Woods (ca. two miles northeast of Urbana, Ill.). The field consisted primarily of Andropogon gerardii Vitman (big bluestem) and a variety of composites. The tests were conducted in mid-August of two years and were timed to coincide with the presence of D. cristata and D. barberi adults in the flower heads of Canada thistle (Carduus arvensis Robson). In the second year, several new attractants of D. v. virgifera and D. barberi were tested in Trelease Woods and along the edge of a 0.8 ha field of hybrid corn located at the Pomology South Farms, Urbana, Ill. Attraction of Diabrotica species to the various lures was measured by the mean number of beetles caught after 24-h. On one date in late August of the first year, D. cristata and D. barberi were removed from the traps and sexed in the laboratory. The significance of treatments in all tests was determined by an analysis of variance and the individual means were separated by Duncan's multiple range test (Statistical Package for Social Science, Nie, et al., SPSS: statistical package for the social sciences, 2nd ed. McGraw-Hill, New York (1975). Data were logarithmically transformed for statistical analysis and the means and standard deviations are presented for the untransformed data.

[10] = test system: D. u. howardi; assay: as above; format: in vivo, Diabrotica undecimpunctata howardi; details: August 14, 1987; 100 mg per trap; n = 4
Experimental: as §7

[11] = test system: D. cristata; assay: as above; format: in vivo, Diabrotica cristata; details: August 14, 1987; 100 mg per trap; n = 4
Experimental: as §7

[12] = test system: D. v. virgifera; assay: as above; format: in vivo, Diabrotica virgifera virgifera; details: August 14, 1987; 100 mg per trap; n = 4
Experimental: as §7

[13] = August 4, second year, each compound 20 mg per trap
[14] = August 7, second year, each compound 20 mg per trap
[15] = August first year, South Farms, 24 h, single compounds 100 mg per trap, mixture 20 mg of each component
[16] = August first year, single compounds 100 mg per trap, mixture 20 mg each component

For O=CCc1ccccc1 [Phenylacetaldehyde], the “relative percent activity (SCR) as compared with the highest mean value for the test date” value [1, 13] was 8%, the “Mean number of SCR per trap (±standard deviation)” value [1, 13] was 3.0 ± 1.2 per trap and the “relative percent activity (SCR) as compared with the highest mean value for the test date” value [1, 14] was 12%. The “Mean number of SCR per trap (±standard deviation)” value [1, 14] was 5.3 ± 3.2 per trap, the “Mean number of SCR per trap (±standard deviation)” value [1, 15] was 2.5 ± 1.9 per trap and the “relative percent activity of the mean SCR trap catch as compared with the highest mean value in the column” value [1, 16] was 12%. For the same molecule, the “relative percent activity (WCR) as compared with the highest mean value for the test date” value [2, 13] was 35%, the “Mean number of WCR per trap (±standard deviation)” value [2, 13] was 17.8 ± 7.9 per trap and the “relative percent activity (WCR) as compared with the highest mean value for the test date” value [2, 14] was 42%. The “Mean number of WCR per trap (±standard deviation)” value [2, 14] was 13.3 ± 8.1 per trap, the “Mean number of WCR per trap (±standard deviation)” value [2, 15] was 1.8 ± 1.3 per trap and the “relative percent activity of the mean WCR trap catch as compared with the highest mean value in the column” value [2, 16] was 26%. For the same molecule, the “Attractant Rating WCR (by limit of response)” value [3] was 0 (200), the “Attractant Rating SCR (by limit of response)” value [4] was “+2 (10-30)” and the “Attractant Rating NCR (by limit of response)” value [5] was 0 (200).

For N#CC=Cc1ccccc1 [X, cinnamonitrile], the “Mean number of NCR per sticky trap after 24 hours” value (“Mean number of NCR per sticky trap” below) [6] was 0.3 ± 0.5^a per sticky trap, the “Mean number of WCR adults per sticky trap (±standard deviation) after 24 hours” value ([7]; August 4 second year) was 32.7 ± 11.4^bc per sticky trap and the “Mean number of WCR per sticky trap after 24 hours” value (“Mean number of WCR per sticky trap” below) [7] was 37.8 ± 7.8^cd per sticky trap. The “Mean number of WCR adults per sticky trap (±standard deviation) after 24 hours” value ([7]; August 5 first year) was 1.5 ± 6.6^ab per sticky trap, the “Mean number of SCR adults per sticky trap (±standard deviation) after 24 hours” value ([8]; August 4 second year) was 59.5 ± 49.0^c per sticky trap and the “Mean number of SCR per sticky trap after 24 hours” value (“Mean number of SCR per sticky trap” below) [8] was 47.5 ± 15.4^cd per sticky trap. For the same molecule, the “Mean number of SCR adults per sticky trap (±standard deviation) after 24 hours” value ([8]; August 5 first year) was 156.0 ± 37.2^c per sticky trap.

CC(=O)OCC=Cc1ccccc1 [XIX, cinnamyl acetate] was tested, and the “Mean number of NCR per sticky trap” value [6] was 5.7 ± 2.9^b per sticky trap, the “Mean number of WCR per sticky trap” value [7] was 24.0 ± 1.07^b per sticky trap and the “Mean number of SCR per sticky trap” value [8] was 6.0 ± 1.5^a per sticky trap.

For COC(=O)C=Cc1ccccc1 [XV, cinnamic acid methyl ester], the “Mean number of NCR per sticky trap” value [6] was 0.5 ± 0.6^a per sticky trap, the “Mean number of WCR per sticky trap” value [7] was 9.5 ± 4.5^a per sticky trap and the “Mean number of WCR adults per sticky trap (±standard deviation) after 24 hours” value ([7]; September 11) was 1.7 ± 1.7^a per sticky trap. The “Mean number of SCR per sticky trap” value [8] was 2.0 ± 0.8^a per sticky trap and the “Mean number of SCR adults per sticky trap (±standard deviation) after 24 hours” value ([8]; September 11) was 3.2 ± 1.7^ab per sticky trap.

O=C(O)C=Cc1ccccc1 [XX, cinnamic acid] was tested, and the “Mean number of NCR per sticky trap” value [6] was 1.7 ± 1.0^a per sticky trap, the “Mean number of WCR per sticky trap” value [7] was 12.7 ± 4.9^a per sticky trap and the “Mean number of SCR per sticky trap” value [8] was 1.7 ± 0.5^a per sticky trap.

O=C(O)CCc1ccccc1 [XXII, dihydrocinnamic acid] was tested, and the “Mean number of NCR per sticky trap” value [6] was 4.0 ± 1.4^b per sticky trap, the “Mean number of WCR per sticky trap” value [7] was 12.0 ± 3.6^a per sticky trap and the “Mean number of SCR per sticky trap” value [8] was 33.7 ± 8.7^bc per sticky trap.

N#CCCc1ccccc1 [XXIII, phenyl propionitrile] was tested, and the “Mean number of NCR per sticky trap” value [6] was 0.3 ± 0.5^a per sticky trap, the “Mean number of WCR per sticky trap” value [7] was 12.0 ± 4.2^a per sticky trap and the “Mean number of SCR per sticky trap” value [8] was 23.7 ± 9.7^b per sticky trap.

CC(=O)/C=C/C1C(C)=CCCC1(C)C (stereo not drawn) [α-ionone] was tested, and the “Mean number of D. barberi per day (±standard deviation)” value [9] was 0.3 ± 0.5^a per day, the “Mean number of D. u. howardi per day (±standard deviation)” value [10] was 0.0^a per day and the “Attractant Rating WCR (by limit of response)” value [3] was 0 (200). The “Attractant Rating SCR (by limit of response)” value [4] was 0 (200), the “Mean number of D. cristata per day (±standard deviation)” value [11] was 2.8 ± 2.1^a per day and the “Mean number of D. v. virgifera per day (±standard deviation)” value [12] was 0.0^a per day. For the same molecule, the “Attractant Rating NCR (by limit of response)” value [5] was 0 (200).
